# Measured values: patent publication US20210395208A1, “AMORPHOUS COMPOUNDS OF FORMULA (I) AND AMORPHOUS COMPOUNDS OF FORMULA (I) SALTS” (H. Lundeck A/S, priority 2018, published 2021)
# Where a name gives a salt, the structure may show the parent alone.
# Experiments:
# Assay type in all cases: physicochemical
# [1] = Actual glass transition temperature (Tg) of the amorphous form by DSC; settings: amorphous form made by melt quenching in the DSC pan, heated 10° C./min
# Experimental: (§1) The terms “actual glass transition temperature” and “calculated glass transition temperature” as used herein refers to the measured (actual) and theoretical (calculated) glass transition temperature associated with a specific compound of Formula (I) or compound of Formula (I) salt. The actual glass transition temperature is determined from the DSC thermogram for the amorphous material, which is exemplified in example 1 and depicted in FIG. 2. The calculated glass transition temperature is calculated as ⅔ of the melting temperature (in Kelvin) of the crystalline form. FIG. 1 illustrate DSC thermograms of crystalline forms of compound (Ia), from which the melting temperature can be determined. The calculation procedure for estimation of the glass transition temperature is described in example 1.
# (§2) As stated in the description of the present application, it is generally recognized that the glass transition temperature can be estimated as ⅔ of the melting temperature of the crystalline material (measured in Kelvin). From the DSC thermograms in FIG. 1 (left), it is seen that the crystalline base of compound (Ia) has an endothermic peak around 60° C. corresponding to the melting of the crystals. Based on the melting temperature of the crystalline base of compound (la), the calculated glass transition temperature of the amorphous form of this compound is thus ⅔*(60° C.+273)=222 K or −51° C. […] This means that the actual measured Tg of this amorphous form is around 5° C. and not −51° C. as calculated using the Beaman Rule.
# (§3) Similar experiments were performed with the hydrogen fumarate of compound (Ia). Here the calculated Tg was based on the observed endothermic peak around 203° C. corresponding to the melting of the crystal (FIG. 1—right). Consequently, the calculated Tg is ⅔ *(203° C.+273)=317 K or 44° C. The thermogram of the amorphous form is shown in FIG. 2 (right) and depicts a change in heat capacity around 66° C. corresponding to a glass transition. This means that the actual measured Tg of the amorphous hydrogen fumarate of compound (Ia) is around 66° C. and not 44° C. as calculated.
# Different scanning programs are used depending on the purpose of the analysis as given in example 9. In all DSC-experiments, 2-5 mg sample is packed into Tzero aluminum hermetic pans with a perforated lid, and the measurement is performed under 50 mL/min dry nitrogen gas purge.
# Melting point and glass transition determined on the base of compound (Ia): Sample of 2-3 mg was packed into Tzero aluminum hermetic pans with a perforated lid and heated 1° C./min to 80° C. (giving the melting point), kept isothermal for 2 min., equilibrated at −50° C., and heated 10° C./min to 110° C. (giving the glass transition of the formed amorphous solid). […]
# [2] = Physical stability of amorphous solids by XRPD on storage at ambient conditions; settings: ambient conditions (15-35 degrees Celsius, 15-75 percent RH), 96 hours, 1, 4, 9 weeks, 5, 8, 12 months
# Experimental: The term “ambient conditions” as used herein refers to conditions with a temperature range of 15-35 degrees Celsius and a relative humidity range of 15-75 percent.
# X-Ray powder diffractograms were measured on a PANalytical X′Pert PRO X-Ray Diffractometer using CuKα1 radiation (λ=1.5406 Å). The samples were measured in reflection mode in the 2θ-range 3-40° using an X'celerator detector. (See FIGS. 3, 4 and 5).
# The amorphous base and the fumarate salt of compound (Ia) were analyzed using XRPD to determine the physical stability of these solid forms. The presence of a substantially amorphous solid form was confirmed by a diffuse halo XRPD pattern similar to FIG. 3, which is characteristic for a solid amorphous form.
# The short-term physical stability of the amorphous solids was analyzed immediately after preparation; the samples were analyzed by XRPD for 96 hours consecutively by alternating measurements every 2 hours. The long-term stability was then assessed by storing the amorphous solids under ambient conditions and analyzing them by XRPD after 1, 4 and 9 weeks as well as 5, 8 and 12 months.
# [3] = Calculated glass transition temperature, 2/3 of the crystalline melting temperature in Kelvin (Beaman's rule); settings: crystalline melting points around 60° C. (base) and 203° C. (hydrogen fumarate)
# Experimental: as §1
# The glass transition temperature can be estimated as ⅔ of the melting temperature of the crystalline material (measured in Kelvin). This relationship is known as the “Beaman's rule” and applies to a wide range of both organic, inorganic, simple and polymeric materials. (Beaman, R. G. Journal of Polymer Science, 1952, 9(5): 470-472).
# as §2, §3
# [4] = Recrystallization of amorphous material upon heating above Tg (DSC); settings: DSC thermogram of the amorphous material, FIG. 2
# Experimental: Melting point and glass transition determined on the base of compound (Ia): Sample of 2-3 mg was packed into Tzero aluminum hermetic pans with a perforated lid and heated 1° C./min to 80° C. (giving the melting point), kept isothermal for 2 min., equilibrated at −50° C., and heated 10° C./min to 110° C. (giving the glass transition of the formed amorphous solid).
# Melting point and glass transition of the hydrogen fumarate of compound (Ia): Sample heated 1° C./min to 210° C. (giving the melting point), kept isothermal for 2 min., equilibrated at −50° C., and heated 10° C./min to 230° C. (giving the glass transition of the formed amorphous solid).
actual (measured) glass transition temperature Tg [1],actual (measured) glass transition temperature Tg ([1]; listed as amorphous hydrogen fumarate salt) [°C],calculated glass transition temperature Tg [3] [°C],calculated glass transition temperature Tg ([3]; listed as amorphous hydrogen fumarate salt of compound (Ia)) [°C],actual (measured) glass transition temperature Tg ([1]; listed as amorphous base),calculated glass transition temperature Tg ([3]; listed as amorphous base),Compound,physical stability of the amorphous solid (XRPD pattern) [2],recrystallization upon heating above the glass transition [4],physical stability of the amorphous solid (XRPD pattern) ([2]; listed as free base)
around 66 °C,66,44,~44,–,–,[2H]c1c([2H])c([2H])c([C@@H]2C[C@@H](N3CCN(C([2H])([2H])[2H])C(C)(C)C3)c3cc(Cl)ccc32)c([2H])c1[2H] [amorphous hydrogen fumarate of compound (Ia)],substantially amorphous solids at all timepoints,do not recrystallize easily above the glass transitions,–
around 5 °C,–,−51,–,about 4 °C,about −51 °C,[2H]c1c([2H])c([2H])c([C@@H]2C[C@@H](N3CCN(C([2H])([2H])[2H])C(C)(C)C3)c3cc(Cl)ccc32)c([2H])c1[2H] [amorphous base of compound (Ia)],–,do not recrystallize easily above the glass transitions,weak indication of crystallization of the free base after 5 months
